Here are results for two molecules from article PMC7617978, “Anti-trypanosomal quinazolines targeting lysyl-tRNA synthetases show partial efficacy in a mouse model of acute Chagas disease” (Science translational medicine, 2025).

One series has as its target TcKRS1 (Trypanosoma cruzi, UniProt Q4D7V3). Put plainly: TcKRS1 inhibition assay using BIOMOL Green. The class given is biochemical. The conditions noted are these: for IC50: recombinant TcKRS1, 14 μM ATP, 400 μM L-lysine, read-out: IC50 values (95% CI). On the procedure: For TcKRS1 (TcCLB.508971.30), synthetic DNA codon-optimized for expression in E. coli and encoding amino acid residues 54–580 of the TcKRS1 protein was synthesized by Genscript and subcloned into a modified pET15b vector, with an N-terminal 6×His tag and a Tobacco Etch Virus (TEV) cleavage site. The resulting plasmid was transformed into E. coli BL21(DE3) (Stratagene) for expression. A 10-ml starter culture was grown at 37°C overnight, then used to inoculate 1 L of LB Autoinduction media that was grown for 48 h at 20°C. Cell pellets were resuspended in buffer containing 25 mM Tris, 500 mM NaCl, 20 mM imidazole, pH 8.5, and lysed using a continuous flow cell disrupter (Constant Systems). Recombinant TcKRS1 was purified using Ni^2+ affinity chromatography, the 6×His tag cleaved using TEV protease and the tag and protease removed by a second Ni^2+ affinity chromatography step. The protein was further purified via size exclusion chromatography, where TcKRS1 eluted with a mass consistent with the protein forming a dimer. Purified recombinant protein were concentrated to ~1 mg/ml in buffer (25 mM Tris, 150 mM NaCl, 10 % glycerol, pH 7.5) for assay.
The enzymatic activity of recombinant KRS was determined by monitoring the concentration of pyrophosphate released during the first step of the reaction catalyzed by recombinant TcKRS1. The pyrophosphate formed was converted to two inorganic phosphate molecules using a pyrophosphatase enzyme and concentrations of the resulting phosphate were measured using the BIOMOL Green reagent (Enzo Life Sciences). All screening assays were performed in 384-well, clear, flat-bottom plates (Greiner) at room temperature (~23°C) in 50 μl reaction volumes.
To generate IC50 data for test compounds, 10-point inhibitor dose-response curves were prepared in 384-well assay plates using an ECHO 550 acoustic dispenser (Labcyte). Following preparation of the inhibitor curves, assays were carried out for recombinant KRS enzymes as follows: TcKRS1 assay wells contained rTcKRS1 assay buffer (100 mM Tris; […]; HsKRS reactions contained HsKRS assay buffer (30 mM Tris; […].
All assays were performed by adding 25 μl of assay buffer with enzyme to compound-containing assay wells before the reaction was initiated with the addition of a 25 μl substrate mixture containing L-lysine, ATP and pyrophosphatase. […] Following a 6–h reaction at room temperature, the assays were stopped by the addition of 50 μl BIOMOL Green. The BIOMOL Green signal was allowed to develop for 30 min before the absorbance of each well was read at 650 nm using a PheraStar plate reader (BMG). All liquid-dispensing steps were carried out using a Thermo Scientific WellMate dispenser (Matrix).

Series [1] relates to T. cruzi (Sylvio X10/7A1 strain) epimastigote. Description: microbe, parasite or virus in culture. It is filed as cell-based. The note with it: for EC50: Trypanosoma cruzi; for Fold-shift (relative to WT): epimastigote.
Series [2] relates to L. donovani (MHOM-ET-67/L82) axenic amastigote. Put plainly: Drug sensitivity assay, L. donovani axenic amastigotes. It is filed as cell-based. The note with it: Leishmania donovani, WT.
The nature of series [3]: Metabolic stability in mouse liver microsomes. The conditions noted are these: 1 µM, NADPH. It is filed as in vitro ADME. On the procedure:
The metabolic stability of key compounds was assessed using the protocol established by TCG
Lifesciences (India). Briefly, mouse liver microsomes (MLM) were incubated with test
compounds or controls (atenolol, propranolol, diclofenac and verapamil) at 1 µM. Reactions
were initiated by the addition of NADPH and terminated by the addition of acetonitrile. […]
For orientation: Liver microsomes are a subcellular fraction often used to study metabolism.

In series [4] the test system is L. donovani (LdBOB) promastigote. Put plainly: Drug sensitivity assay, L. donovani promastigotes. The class given is cell-based. The note with it: for EC50: Leishmania donovani.
The next series has as its target CYP2D6 (Homo sapiens, UniProt P10635). Description: In vitro CYP inhibition, 2D6. It is filed as in vitro ADME. On the procedure:
(§1) Compounds were screened for CYP inhibition activity using the protocol established by TCG Lifesciences (India). The activity of five CYP450 isoforms: 1A2; 2C9; 2D6, 3A4; and 2C19 was monitored in the presence of test or control (miconazole) compounds at 10 µM. Reactions were terminated after 10 min (30 min for CYP2C19) by the addition of acetonitrile, centrifuged and analysed via LC-MS/MS. […]

Another series is described as follows: Plasma protein binding. The class given is in vitro ADME. The note with it: read-out: bound to plasma proteins (converted). On the procedure: The propensity of DMU759 to bind to plasma proteins was determined as previously described ([21]).
The test system of series [5] is T. cruzi CL Brener strain. Put plainly: Bioluminescent mouse model of acute T. cruzi infection. It is filed as in vivo, BALB/c mice. The conditions noted are these: 50 mg/kg BID oral, 5 days, from 10 days post-infection, bioluminescence imaging. On the procedure:
Female BALB/c mice (aged 6-7 weeks), purchased from Charles River (UK), were maintained under specific pathogen-free conditions in individually ventilated cages, with a 12 h light/dark cycle. They had access to food and water ad libitum. Mice were infected by intraperitoneal injection (i.p) of 1x10^3 bloodstream trypomastigotes derived from CB17 SCID mouse blood.
Compounds were prepared in 5% (v/v) dimethyl sulfoxide /95% HPMC suspension vehicle (0.5% (w/v) hydroxypropyl methylcellulose, 0.5% (v/v) benzyl alcohol, 0.4% (v/v) Tween 80 in Milli-Q water). Mice were treated as outlined in Fig. 5, with compounds administered by oral gavage. At different days after infection, mice were injected with d-luciferin (150 mg/kg) i.p., anaesthetized using 2.5% (v/v) gaseous isoflurane and imaged using an IVIS Spectrum (Revvity, Hopkinton, MA, USA) 5-10 min later. To estimate parasite burden, mice ventral and dorsal regions of interest were drawn using Living Image 4.7.3 to quantify bioluminescence expressed as total flux (photons/second; p/s). Regions of interest data from infected and not-infected mice were used as controls. Exposure times varied between 30 sec and 5 min, depending on the signal intensity.

In the next series the target is CYP3A4 (Homo sapiens, UniProt P08684). Description: In vitro CYP inhibition, 3A4. It is filed as in vitro ADME. On the procedure:
as §1

For series [6], the system named is Lysyl-tRNA synthetase 1 (KRS1). Put plainly: Isothermal proteome profiling (iTPP), TcKRS1. It is filed as binding, T. cruzi. The note with it: KRS1 (C4B63_45g239); lysate, compound at 10× EC50, 48°C. On the procedure:
T. cruzi epimastigote lysates were generated as previously described ([29]). Isothermal TPP assays were performed as previously described ([25]). […] Data processing and analyses were performed as previously described ([25]), except proteins were identified via searches against the T. cruzi Dm28C proteome (tritrypdb.org, version 49).

[7] abbreviates: read-out: EC50 value, KRS1 OE (overexpressing), epimastigote.
Where [8] appears, read: read-out: EC50 value, KRS1 S319L, epimastigote.
[9] abbreviates: read-out: EC50 value, WT, epimastigote.
The mark [10] stands for this setting: KRS1 OE, promastigote, read-out: EC50 value.
Setting [11] is: WT, promastigote, read-out: EC50 value.
The mark [12] stands for this setting: read-out: EC50 value, KRS1 S324L, promastigote.

The structures appear in SMILES notation. Where two headings read alike, the source gives them in different places.

Chain of TcKRS1 (Q4D7V3 entry or part of it): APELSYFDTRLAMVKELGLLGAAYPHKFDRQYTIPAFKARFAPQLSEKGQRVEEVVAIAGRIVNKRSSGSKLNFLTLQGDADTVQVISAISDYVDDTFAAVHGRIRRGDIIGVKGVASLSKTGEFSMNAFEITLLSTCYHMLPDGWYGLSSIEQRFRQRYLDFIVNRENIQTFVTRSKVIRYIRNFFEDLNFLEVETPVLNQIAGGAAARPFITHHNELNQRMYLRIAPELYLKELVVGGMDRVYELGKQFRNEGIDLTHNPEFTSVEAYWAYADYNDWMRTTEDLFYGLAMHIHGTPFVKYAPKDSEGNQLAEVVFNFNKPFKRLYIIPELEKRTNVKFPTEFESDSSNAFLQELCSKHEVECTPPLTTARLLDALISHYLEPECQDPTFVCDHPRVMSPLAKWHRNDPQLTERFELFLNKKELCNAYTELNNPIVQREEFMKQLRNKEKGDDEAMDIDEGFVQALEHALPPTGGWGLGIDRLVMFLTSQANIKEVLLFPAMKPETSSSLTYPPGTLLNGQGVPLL
Chain of CYP3A4 (P08684 whole entry): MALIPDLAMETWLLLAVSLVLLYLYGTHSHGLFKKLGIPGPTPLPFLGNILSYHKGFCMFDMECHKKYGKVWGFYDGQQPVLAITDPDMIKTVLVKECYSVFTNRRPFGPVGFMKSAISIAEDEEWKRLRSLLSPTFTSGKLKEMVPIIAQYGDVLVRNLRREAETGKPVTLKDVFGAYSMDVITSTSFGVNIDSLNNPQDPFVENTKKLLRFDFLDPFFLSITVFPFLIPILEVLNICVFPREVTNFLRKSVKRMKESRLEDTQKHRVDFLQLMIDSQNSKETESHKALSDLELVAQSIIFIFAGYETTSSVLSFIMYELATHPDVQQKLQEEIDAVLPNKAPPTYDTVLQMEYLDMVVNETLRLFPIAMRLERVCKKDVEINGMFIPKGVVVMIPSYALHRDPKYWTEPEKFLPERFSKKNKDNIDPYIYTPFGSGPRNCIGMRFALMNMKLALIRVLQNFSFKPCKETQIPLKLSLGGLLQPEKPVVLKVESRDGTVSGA
Chain of CYP2D6 (P10635 whole entry, canonical isoform): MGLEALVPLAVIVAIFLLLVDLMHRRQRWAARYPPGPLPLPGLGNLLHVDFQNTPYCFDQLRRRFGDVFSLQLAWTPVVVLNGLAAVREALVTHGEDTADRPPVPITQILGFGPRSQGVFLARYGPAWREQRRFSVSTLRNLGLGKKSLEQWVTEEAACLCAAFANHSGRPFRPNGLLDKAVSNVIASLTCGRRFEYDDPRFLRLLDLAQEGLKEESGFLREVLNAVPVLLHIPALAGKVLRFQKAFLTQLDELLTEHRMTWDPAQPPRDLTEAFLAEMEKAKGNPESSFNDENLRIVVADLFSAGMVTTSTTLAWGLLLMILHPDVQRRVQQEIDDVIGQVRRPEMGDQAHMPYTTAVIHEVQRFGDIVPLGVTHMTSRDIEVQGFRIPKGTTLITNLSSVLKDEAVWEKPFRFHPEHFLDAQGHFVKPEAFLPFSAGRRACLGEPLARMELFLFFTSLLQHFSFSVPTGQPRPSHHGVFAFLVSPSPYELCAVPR

Broadly, the IC50 is the concentration that inhibits the measured activity by half. The EC50 is the concentration needed to bring the measured effect to its halfway point. Consider `Cc1nc(N)c2c(F)c(F)c(NC3CCCC3)c(F)c2n1` [DMU371, N7-Cyclopentyl-5,6,8-trifluoro-2-methylquinazoline-4,7-diamine], for which the “extent of inhibition of TcKRS1” value at TcKRS1 was “full inhibition”. For the same molecule, at TcKRS1, the IC50 was 185 nM. The EC50 in [1] (setting [7]) is 624 ± 14 nM; in [1] (setting [8]), 326 ± 26 nM; in [1] (setting [9]), 63 ± 2.4 nM; in series [2], 5320 ± 2780 nM; in series [4] (setting [10]), 1860 ± 63 nM; in [4] (setting [11]) it was 524 ± 9 nM. In addition, in series [4] (setting [12]), the EC50 came out at 1740 ± 49 nM. In [3], the “Mouse liver microsome stability” value was greater than 500 µL/min/mg.

Broadly, the inhibition is the percentage by which the read-out fell short of the control. For `Cc1nc(N)c2c(F)c(F)c(SC3CCCCC3)c(F)c2n1` [DMU759, 7-(Cyclohexylthio)-5,6,8-trifluoro-2-methylquinazolin-4-amine], the “extent of inhibition of TcKRS1” value at TcKRS1 is “full inhibition”. Besides, the IC50 at TcKRS1 came to 15 nM. Moreover, the inhibition at 10 min, 10 µM against CYP2D6 stood at 14.5 ± 2.5%; on CYP3A4 it was 0%. Also, in “Plasma protein binding”, the fraction unbound is 0.11. The “Fold-shift (relative to WT)” value came out at 10 fold in [1] (KRS1 OE); 41 fold in series [1] (KRS1 S319L); 13 fold in series [4] (KRS1 OE, promastigote); 12 fold in [4] (KRS1 S324L, promastigote). The EC50 in series [1] (setting [7]) turned out to be 134 ± 3 nM; in series [1] (setting [8]), 565 ± 41 nM; in series [1] (setting [9]) it was 14 ± 0.3 nM; in series [2], 284 ± 20 nM; in [4] (setting [10]), 1470 ± 56 nM; in [4] (setting [11]), 115 ± 0.1 nM. In series [4] (setting [12]), the EC50 is 1320 ± 32 nM. Moreover, the “resistance conferred by mutation of a single amino acid in the KRS1 active site” value in series [1] (in vitro, parasite not stated (discussion)) is listed as greater than 20 fold. Besides, in series [5], the “reduction of parasite burden (parasitemia)” value is “up to 81%”. Besides, the “Mouse liver microsome stability” value in [3] is greater than 500 µL/min/mg. In addition, in [6], the “Abundance Log2 fold change Rep 1” value was determined as 2.26. Besides, in series [6], the “Abundance Log2 fold change Rep 2” value is reported as 1.94.
